The record followed here is ChEMBL document CHEMBL4196087 (Eur J Med Chem, 2018).

Each structure is given as a SMILES string. In brackets after ≈: the same amount, converted by molar mass. A value given as a limit tells only on which side of the number the result lay.

Holding throughout (format): functional
In one test the test system is HOP-62. Put plainly: Growth inhibition of human HOP62 cells at 10^-5 M incubated for 48 hrs by sulforhodamine B assay relative to control. The conditions noted are these: HOP-62, 48 h, read-out: GI. (In general: Sulforhodamine B stains cellular protein and so reports cell mass.)
The subject of another test is K562. In words: Growth inhibition of human K562 cells at 10^-5 M incubated for 48 hrs by sulforhodamine B assay relative to control. Particulars: K562, 48 h, read-out: GI.
Another test relates to Staphylococcus aureus. In words: Antibacterial activity against Staphylococcus aureus at 37 degC measured after 24 hrs by agar disc diffusion method. (In general: A growth-free zone around the sample is the usual read-out of agar diffusion tests.)
The test system of the next test is NCI-H226. Put plainly: Growth inhibition of human NCI-H226 cells at 10^-5 M incubated for 48 hrs by sulforhodamine B assay relative to control. The conditions noted are these: NCI-H226, 48 h, read-out: GI.
A further test concerns T47D. Put plainly: Growth inhibition of human T47D cells at 10^-5 M incubated for 48 hrs by sulforhodamine B assay relative to control. The conditions noted are these: read-out: GI.
Test [1] deals with Pseudomonas aeruginosa. Put plainly: Antibacterial activity against Pseudomonas aeruginosa at 37 degC measured after 24 hrs by agar disc diffusion method.
The next test concerns MDA-MB-468. In words: Growth inhibition of human MDA-MB-468 cells at 10^-5 M incubated for 48 hrs by sulforhodamine B assay relative to control. The conditions noted are these: MDA-MB-468, 48 h, read-out: GI.
For the next test, the system named is LOX IMVI. Put plainly: Growth inhibition of human LOXIMVI cells at 10^-5 M incubated for 48 hrs by sulforhodamine B assay relative to control. Particulars: read-out: GI.
A further test relates to MOLT-4. Put plainly: Growth inhibition of human MOLT4 cells at 10^-5 M incubated for 48 hrs by sulforhodamine B assay relative to control. The conditions noted are these: MOLT-4, 48 h, read-out: GI.
Test [2] concerns Bacillus subtilis. Put plainly: Antibacterial activity against Bacillus subtilis at 37 degC measured after 24 hrs by agar disc diffusion method.
Another test has as its system HL-60(TB). In words: Growth inhibition of human HL-60(TB) cells at 10^-5 M incubated for 48 hrs by sulforhodamine B assay relative to control. The conditions noted are these: HL-60, 48 h, read-out: GI.
The test system of the next test is PC-3. Put plainly: Growth inhibition of human PC3 cells at 10^-5 M incubated for 48 hrs by sulforhodamine B assay relative to control. Particulars: PC-3, 48 h, read-out: GI.
The subject of another test is MDA-MB-231. Put plainly: Growth inhibition of human MDA-MB-231 cells at 10^-5 M incubated for 48 hrs by sulforhodamine B assay relative to control. The conditions noted are these: MDA-MB-231, 48 h, read-out: GI.
Another test has as its system HOP-92. In words: Growth inhibition of human HOP92 cells at 10^-5 M incubated for 48 hrs by sulforhodamine B assay relative to control. The conditions noted are these: HOP-92, 48 h, read-out: GI.
The subject of test [3] is Pseudomonas aeruginosa. In words: Antibacterial activity against Pseudomonas aeruginosa at 37 degC measured after 24 hrs by CLSI M7-A4 protocol based method.
For a further test, the system named is RPMI-8226. Put plainly: Growth inhibition of human RPMI8226 cells at 10^-5 M incubated for 48 hrs by sulforhodamine B assay relative to control. The conditions noted are these: RPMI-8226, 48 h, read-out: GI.
The test system of the next test is UO-31. In words: Growth inhibition of human UO31 cells at 10^-5 M incubated for 48 hrs by sulforhodamine B assay relative to control. Particulars: UO-31, 48 h, read-out: GI.
The subject of a further test is MCF7. Put plainly: Growth inhibition of human MCF7 cells at 10^-5 M incubated for 48 hrs by sulforhodamine B assay relative to control. Particulars: MCF7, 48 h, read-out: GI.
Test [4] deals with Bacillus subtilis. In words: Antibacterial activity against Bacillus subtilis at 37 degC measured after 24 hrs by CLSI M7-A4 protocol based method.
The test system of another test is SK-MEL-5. Put plainly: Growth inhibition of human SK-MEL-5 cells at 10^-5 M incubated for 48 hrs by sulforhodamine B assay relative to control. Particulars: SK-MEL-5, 48 h, read-out: GI.
In another test the test system is SF-539. In words: Growth inhibition of human SF539 cells at 10^-5 M incubated for 48 hrs by sulforhodamine B assay relative to control. Particulars: SF-539, 48 h, read-out: GI.
A further test relates to A498. In words: Growth inhibition of human A498 cells at 10^-5 M incubated for 48 hrs by sulforhodamine B assay relative to control. The conditions noted are these: A498, 48 h, read-out: GI.
A further test concerns IGROV-1. In words: Growth inhibition of human IGROV1 cells at 10^-5 M incubated for 48 hrs by sulforhodamine B assay relative to control. Particulars: IGROV-1, 48 h, read-out: GI.
The subject of a further test is SNB-75. Put plainly: Growth inhibition of human SNB75 cells at 10^-5 M incubated for 48 hrs by sulforhodamine B assay relative to control. Particulars: SNB-75, 48 h, read-out: GI.
The next test relates to Escherichia coli. Put plainly: Antibacterial activity against Escherichia coli at 37 degC measured after 24 hrs by agar disc diffusion method.
The test system of the next test is CCRF-CEM. Put plainly: Growth inhibition of human CCRF-CEM cells at 10^-5 M incubated for 48 hrs by sulforhodamine B assay relative to control. Particulars: read-out: GI.

The MIC is the smallest concentration in the dilution series that meets the test's criterion for growth inhibition. A high value points to a less susceptible organism. For `O=C(CN1CCN(c2cc3c(cc2F)c(=O)c(C(=O)O)cn3C2CC2)CC1)N/N=C/c1cccs1`, the inhibition of growth at 10 µM is below 20% with HOP-62; below 20% in the test with K562; below 20% in the test on NCI-H226; below 20% with T47D; below 20% in the test with MDA-MB-468; 27.7% with LOX IMVI. Besides, the inhibition of growth at 10 µM with MOLT-4, with HL-60(TB), with PC-3, with MDA-MB-231, in the test with HOP-92 and in the test with RPMI-8226 was below 20% each time. The inhibition of growth at 10 µM is below 20% in the test with UO-31; below 20% with MCF7; below 20% in the test with SK-MEL-5; below 20% in the test on SF-539; 23.1% in the test with A498; below 20% with IGROV-1. Besides, the inhibition of growth at 10 µM in the test with SNB-75 and in the test on CCRF-CEM was below 20% in each case. In addition, the “diameter of the inhibition zone (DIZ)” value amounted to 23 mm with Staphylococcus aureus, 26 mm in the test with Pseudomonas aeruginosa [1], 28 mm with Bacillus subtilis [2] and 24 mm with Escherichia coli. In addition, the figures for the MIC in the test on Pseudomonas aeruginosa [3] and in the test with Bacillus subtilis [4] were 72 µg/mL (≈ 145 µM) and 82 µg/mL (≈ 165 µM), respectively.
For `O=C(O)c1cn(C2CC2)c2cc(N3CCNCC3)c(F)cc2c1=O` [CIPROFLOXACIN], the “diameter of the inhibition zone (DIZ)” value in the test with Staphylococcus aureus turned out to be 31 mm; in the test on Pseudomonas aeruginosa [1], 36 mm; in the test on Bacillus subtilis [2] it was 38 mm; in the test on Escherichia coli, 33 mm.
Turning to `COc1cc(/C=N/NC(=O)CN2CCN(c3cc4c(cc3F)c(=O)c(C(=O)O)cn4C3CC3)CC2)ccc1O`, the “diameter of the inhibition zone (DIZ)” value in the test with Staphylococcus aureus is recorded as 16 mm; in the test with Pseudomonas aeruginosa [1], 18 mm; in the test with Bacillus subtilis [2], 20 mm; with Escherichia coli it was 18 mm.
Take `O=C(CN1CCN(c2cc3c(cc2F)c(=O)c(C(=O)O)cn3C2CC2)CC1)N/N=C/c1ccccc1Cl`: the “diameter of the inhibition zone (DIZ)” value in the test with Staphylococcus aureus is 20 mm; with Pseudomonas aeruginosa [1] it was 22 mm; with Bacillus subtilis [2], 22 mm; with Escherichia coli it was 19 mm.
Take `O=C(CN1CCN(c2cc3c(cc2F)c(=O)c(C(=O)O)cn3C2CC2)CC1)N/N=C/c1ccco1`: the “diameter of the inhibition zone (DIZ)” value with Staphylococcus aureus came to 26 mm; with Pseudomonas aeruginosa [1], 30 mm; in the test on Bacillus subtilis [2], 31 mm; in the test on Escherichia coli, 28 mm. Further, the MIC amounted to 66 µg/mL (≈ 137 µM) against Pseudomonas aeruginosa [3] and 70 µg/mL (≈ 145 µM) in the test on Bacillus subtilis [4].
As to `COc1cc(/C=N/NC(=O)CN2CCN(c3cc4c(cc3F)c(=O)c(C(=O)O)cn4C3CC3)CC2)cc(OC)c1OC`, the “diameter of the inhibition zone (DIZ)” value with Staphylococcus aureus was found to be 21 mm; in the test on Pseudomonas aeruginosa [1], 23 mm; with Bacillus subtilis [2], 23 mm; with Escherichia coli it was 20 mm.
Take `O=C(CN1CCN(c2cc3c(cc2F)c(=O)c(C(=O)O)cn3C2CC2)CC1)N/N=C/c1cccnc1`: the “diameter of the inhibition zone (DIZ)” value with Staphylococcus aureus amounted to 30 mm; in the test on Pseudomonas aeruginosa [1], 31 mm; in the test on Bacillus subtilis [2], 32 mm; in the test with Escherichia coli, 29 mm. The values for the MIC against Pseudomonas aeruginosa [3] and in the test on Bacillus subtilis [4] were 58 µg/mL (≈ 118 µM) and 60 µg/mL (≈ 122 µM), respectively.
Turning to `NNC(=O)CN1CCN(c2cc3c(cc2F)c(=O)c(C(=O)O)cn3C2CC2)CC1`, the inhibition of growth at 10 µM in the test on HOP-62, in the test on K562, with NCI-H226, in the test on T47D, in the test with MDA-MB-468 and with LOX IMVI was below 20% throughout. For the same compound, the inhibition of growth at 10 µM with MOLT-4 was below 20%; with HL-60(TB) it was 20.5%; in the test on PC-3 it was below 20%; in the test on MDA-MB-231, below 20%; in the test on HOP-92 it was below 20%; in the test with RPMI-8226 it was below 20%. Also, the inhibition of growth at 10 µM in the test with UO-31, with MCF7, in the test with SK-MEL-5, with SF-539, in the test on A498 and with IGROV-1 was below 20% each time. In addition, the inhibition of growth at 10 µM in the test on SNB-75 and with CCRF-CEM was below 20% throughout. The “diameter of the inhibition zone (DIZ)” value in the test on Staphylococcus aureus amounted to 28 mm; in the test with Pseudomonas aeruginosa [1], 30 mm; with Bacillus subtilis [2], 33 mm; with Escherichia coli, 28 mm.
`COc1ccc(/C=N/NC(=O)CN2CCN(c3cc4c(cc3F)c(=O)c(C(=O)O)cn4C3CC3)CC2)cc1`: the inhibition of growth at 10 µM is below 20% with HOP-62; below 20% in the test on K562; below 20% in the test on NCI-H226; below 20% in the test on T47D; below 20% in the test on MDA-MB-468; 23.2% in the test with LOX IMVI. Also, the inhibition of growth at 10 µM with MOLT-4, in the test on HL-60(TB), in the test on PC-3, in the test with MDA-MB-231, in the test with HOP-92 and with RPMI-8226 was below 20% each time. Also, the inhibition of growth at 10 µM in the test with UO-31, in the test on MCF7, in the test with SK-MEL-5, in the test with SF-539, with A498 and in the test on IGROV-1 was below 20% in each case. The inhibition of growth at 10 µM in the test on SNB-75 and in the test on CCRF-CEM was below 20% in each case. The “diameter of the inhibition zone (DIZ)” value in the test on Staphylococcus aureus stood at 25 mm; with Pseudomonas aeruginosa [1] it was 27 mm; in the test on Bacillus subtilis [2], 26 mm; in the test with Escherichia coli, 24 mm.
As for `O=C(CN1CCN(c2cc3c(cc2F)c(=O)c(C(=O)O)cn3C2CC2)CC1)N/N=C/c1ccc(F)cc1`, the “diameter of the inhibition zone (DIZ)” value in the test with Staphylococcus aureus is on record as 18 mm; in the test on Pseudomonas aeruginosa [1] it was 19 mm; with Bacillus subtilis [2], 19 mm; in the test on Escherichia coli, 17 mm.
Consider `O=C(CN1CCN(c2cc3c(cc2F)c(=O)c(C(=O)O)cn3C2CC2)CC1)N/N=C/c1ccncc1`, for which the “diameter of the inhibition zone (DIZ)” value turned out to be 30 mm with Staphylococcus aureus, 30 mm in the test with Pseudomonas aeruginosa [1], 35 mm with Bacillus subtilis [2] and 28 mm in the test on Escherichia coli. The results for the MIC against Pseudomonas aeruginosa [3] and with Bacillus subtilis [4] were 44 µg/mL (≈ 89.3 µM) and 62 µg/mL (≈ 126 µM), respectively.
With `O=C(CN1CCN(c2cc3c(cc2F)c(=O)c(C(=O)O)cn3C2CC2)CC1)N/N=C/c1ccccc1F`, the “diameter of the inhibition zone (DIZ)” value stood at 26 mm in the test with Staphylococcus aureus, 29 mm in the test with Pseudomonas aeruginosa [1], 29 mm with Bacillus subtilis [2] and 26 mm with Escherichia coli.
